Tested on: primary cortical neurons injured by glutamate
Assay: Neuroprotection of primary cortical neurons injured by glutamate: neuron survival and neurite network (MAP-2 staining)
Assay type: cell-based, rat
Settings: for effect on neuritic network / effect on neuron survival: glutamate 40 μM
Procedure: Rat cortical neurons were cultured as described by Singer et al., (J. Neuroscience, (1999), 19(7), 2455-2463) and Callizot et al. (J. Neurosc., (2013), Res. 91(5), 706-716).
Pregnant females (Wistar; JanvierLabs, St Berthevin, France) at 15 days of gestation were killed by cervical dislocation. Foetuses were collected and immediately placed in ice-cold L15 Leibovitz medium (Pan Biotech, Aidenbach, Germany) with a 2% penicillin (10,000 U/ml) and streptomycin (10 mg/ml) solution (PS; Pan Biotech, Aidenbach, Germany) and 1% bovine serum albumin (BSA; Pan Biotech, Aidenbach, Germany). Cortex was treated for 20 min at 37° C. with a trypsin-EDTA (Pan Biotech, Aidenbach, Germany) solution at a final concentration of 0.05% trypsin and 0.02% EDTA. The dissociation was stopped by addition of Dulbecco's modified Eagle's medium (DMEM) with 4.5 g/liter of glucose (Pan Biotech, Aidenbach, Germany), containing DNAse I grade II (final concentration 0.5 mg/ml; Pan Biotech, Germany) and 10% fetal calf serum (FCS; Invitrogen, Cergy Pointoise, France). Cells were mechanically dissociated by three forced passages through the tip of a 10-ml pipette. Cells were then centrifuged at 515 g for 10 min at 4° C. The supernatant was discarded, and the pellet was resuspended in a defined culture medium consisting of Neurobasal medium (Invitrogen, Cergy Pointoise, France) with a 2% solution of B27 supplement (Invitrogen, Cergy Pointoise, France), 2 mmol/liter of L-glutamine (Pan Biotech, Aidenbach, Germany), 2% of PS solution, and 10 ng/ml of brain-derived neurotrophic factor (BDNF; Pan Biotech, Aidenbach, Germany). Viable cells were counted in a Neubauer cytometer, using the trypan blue exclusion test. The cells were seeded at a density of 30,000 per well in 96-well plates precoated with poly-L-lysine (Corning Biocoat, Tewksbury, USA) and were cultured at 37° C. in an air (95%)-CO2 (5%) incubator. The medium was changed every 2 days. The cortical neurons were intoxicated with glutamate solutions (see below) after 13 days of culture.
On day 13, glutamate (Sigma Aldrich, Lyon, France) was added into cell culture to a final concentration of 40 μM diluted in control medium in presence or absence of test compounds for 20 min. After 20 min, the cells were washed-out and new fresh medium containing or not NSPXX-E2 or NSPXX-E1 extracts was added for 48 h additional time.
After 48 hours of glutamate intoxication, cells were fixed by a cold solution of ethanol (95%, Sigma) and acetic acid (5%, Sigma) for 5 min at −20° C. After permeabilization with 0.1% of saponin (Sigma), cells were incubated for 2 h with mouse monoclonal antibody anti microtubule-associated-protein 2 (MAP-2; Sigma) at dilution of 1/400 in PBS (Pan biotech) containing 1% foetal calf serum (Invitrogen) and 0.1% of saponin.
(§1) For each condition 6 wells were assessed, 30 pictures per well were taken using MetaXpress (molecular device) with 20× magnification (30 pictures at X20 representing ˜80% of the total well surface), to assess neurite network (MAP-2 staining). Analysis of picture was done using MetaXpress custum module editor software (molecular device), the total neurite length per picture was recorded). A mean neurite length of the ten pictures was automatically calculated per well, then one data was provided per well (total of 6 raw data were provided per condition).
as §1, with “magnification” for “magnification (30 pictures at X20 representing ˜80% of the total well surface),”, “cell bodies” for “neurite network”, “number of neurons” for “total neurite length”, “recorded.” for “recorded).”, “of neuron number” for “neurite length”
All values were expressed as mean+/−s.e.mean. […]

For C[C@@H]1CC[C@@]2(OC1)O[C@H]1C[C@H]3[C@@H]4CC=C5C[C@@H](O[C@@H]6O[C@H](CO)[C@@H](O[C@@H]7O[C@@H](C)[C@H](O)[C@@H](O)[C@H]7O)[C@H](O)[C@H]6O[C@@H]6O[C@@H](C)[C@H](O)[C@@H](O)[C@H]6O)CC[C@]5(C)[C@H]4CC[C@]3(C)[C@H]1[C@@H]2C [DIOS, dioscin], the “effect on neuritic network” value (6.3 nM-630 nM, 20 min) was “significant protective effect”.
With C[C@@H]1CC[C@@]2(OC1)O[C@H]1C[C@H]3[C@@H]4CC=C5C[C@@H](O)CC[C@]5(C)[C@H]4CC[C@]3(C)[C@H]1[C@@H]2C [DIOSG, diosgenin] the “effect on neuritic network” value (3 pM-30 pM, 20 min) was “significant protective effect” and the “reduction of the concentration of diosgenin compared to diosgenin used alone” value (diosgenin combined with caffeic acid or ferulic acid) was 10 fold.
In the case of COc1cc(/C=C/C(=O)O)ccc1O [FA, ferulic acid], the “effect on neuritic network” value (1 μM-100 μM, 20 min) is reported as “significant protective effect”.
With O=C(O)c1cc(O)c(O)c(O)c1 [Gallic acid, gallic acid] the viability at 10 µM (Rattus norvegicus, Primary cortical neuron, 20 min) was about 80% and the “effect on neuritic network” value (between 10 pM and 1 μM, 20 min) was “significant protective effect”.
For C[C@H]1CC[C@@]2(OC1)O[C@H]1C[C@H]3[C@@H]4CC[C@@H]5C[C@@H](O)CC[C@]5(C)[C@H]4CC[C@]3(C)[C@H]1[C@@H]2C [SAR, sarsasapogenin], the “effect on neuritic network” value (100 pM-100 nM, 20 min) was “protective effect”, the “effect on neuron survival” value (100 nM, 20 min) was “significant protective effect” and the “toxicity for cortical neurons and for neuritic network” value (1 μmol/L or 10 μmol/L) was “toxic”. For the same compound, the “toxicity on cortical neurons” value (at the highest concentrations tested) was “toxic”, the “effect on neuritic network” value (between 100 pM and 10 nM, 20 min) was “significant protective effect” and the “reduction of the steroidal saponin concentration compared to sarsasapogenin used alone” value (sarsasapogenin combined with caffeic acid or ferulic acid) was 10 fold.
In the case of O=c1c(O)c(-c2ccc(O)c(O)c2)oc2cc(O)cc(O)c12 [quercetin], the “effect on neurite network” value (100 nM and 1 μM, glutamate injury) is reported as “significant protective effect”.
For catechin, the “effect on neuritic network” value (1 nM-1 μM, 20 min) was “protective effect”, the “effect on neuron survival” value (between 100 nM and 1 μM, 20 min) was “significant protective effect” and the “effect on neuritic network” value (between 500 nM and 5 μM, 20 min) was “significant protective effect”.

From US11951113B2, “Synergestic combination composition comprising a steroidal saponin, a first polyphenolic compound and a second polyphenolic compound” (NEURALIA, priority 2018, dated 2024)
